Laboratory results published in US20220153746A1, “NITROGEN OXIDE-DONATING PDE-5 AND/OR PDE-6 INHIBITOR COMPOUNDS, AND USES THEREOF” (ILDONG PHARMACEUTICAL CO., LTD., priority 2020, published 2022).
Where two headings read alike, the source gives them in different places.

Assay: TD Phase (Groups 1 and 3): plasma and ocular tissue concentrations and pharmacokinetics of Compound 18 and its metabolite Compound 4 after once daily ocular instillation of Compound 18 nanosuspension for 7 days
Format: in vivo, New Zealand white rabbits
Details: for Cmax / Tmax / half-life / AUC(0-t): topical or ocular; for AUC(0-t): read-out: AUC0-8; for Metabolite/parent AUC ratio (Compound 4 vs Compound 18): TD phase
Description: This example illustrates the procedures and results for the levels of Compound 18 and its metabolite Compound 4 in plasma and ocular tissues of normotensive rabbits following ocular instillation of Compound 18 once daily for 7 consecutive days.
Twenty five (25) male New Zealand white rabbits were divided into 5 groups of varying amounts of animals per group.
The Test article, Compound 18 was formulated as a 2% nanosuspension in DI water containing 0.2% PS80 (polyoxyethylenesorbitan, monooleate (Tween 80)) and 0.4% HPMC (hydroxypropylmethylcellulose) at pH 6.77. Referred to herein as “Compound 18 nanosuspension.”
The study consisted of three groups (Groups 1-3) of 19 male rabbits (NZW) that underwent once daily morning ocular installation (1 eyedrop) for 7 consecutive days (Day 0-6). Groups 4-5 each consisted of 3 male rabbits (NZW) that were not dosed.
Blood samples (1 mL) were collected from the jugular vein at the intervals set out below for each group. The samples were then inverted several times following collection and held on wet ice until centrifuged. Samples were centrifuged within 60 minutes of collection under refrigeration (set at 5° C. for 10 minutes at 2000 g.
Group 1 (Pilot Study, terminal blood collection): blood was collected from 3 animals at 1 hour post day 7 dose of Compound 18 nanosuspension.
Group 3 (TD Phase, terminal blood collection): blood was collected from 3 animals at 0.5 hour, 3 animals at 2 hours, 3 animals at 4 hours, and 3 animals at 8 hours post day 7 dose of Compound 18 nanosuspension.
Group 1 (Pilot Study): 3 animals were terminated at 1 hour post Day 7 dose of Compound 18 nanosuspension. Following blood collection and termination, ocular tissues (aqueous humor, vitreous humor, cornea, iris/ciliary body, lens, optic nerve, retina, sclera/choroid, and trabecular meshwork) were collected from each animal and the tissue weights were recorded. Note: sclera and choroid were collected together. Iris and ciliary body were collected together.
Group 3 (TD Phase): 3 animals were terminated at 0.5 hour, 3 animals at 2 hours, 3 animals at 4 hours, and 3 animals at 8 hours post Day 7 dose of Compound 18 nanosuspension. Following blood collection and termination, ocular tissues (aqueous humor, vitreous humor, cornea, iris/ciliary body, lens, optic nerve, retina, sclera/choroid, and trabecular meshwork) were collected from each animal and the tissue weights were recorded. Note: sclera and choroid were collected together. Iris and ciliary body were collected together.
Plasma and tissue samples from treated animals (Groups 1-3) were analyzed for Compound 18 and its metabolite Compound 4 concentrations by LC-MS/MS.
Pharmacokinetic analysis was conducted using WinNonlin Version 6.2.1 (Pharsight, Mountain View, Calif.), operating as a validated software system. Noncompartmental analysis was conducted using the extravascular administration model for ocular instillation dosing.
The peak plasma and ocular tissue concentration, time to achieve peak plasma and ocular tissue concentration, half-life, and area under the plasma and ocular tissue concentration-time curve (Cmax, Tmax, T1/2, and AUC) were calculated from the TD phase combined with the pilot study mean animal plasma and ocular tissue concentrations for each sampling time/dose group for Compound 18 and its metabolite Compound 4.
BA Assay: Quantitation Range 0.05 to 100 ng/mL for Compound 18, 0.15 to 100 ng/mL for Compound 4.
3. Pipet 50 μL of each type of pre-spiked ocular tissue samples (AH/VH) for QC samples, 50 μL of incurred aqueous humor, and vitreous humor sample (if applicable) into a 96 well plate.
Ocular Tissues Homogenate Preparation: Incurred rabbit ocular tissues were weighed in Genogrinder tubes (plastic tubes with small beads) at the time of removal from the animal and stored frozen (<−70° C.) until analysis. The rabbit incurred ocular tissues were thawed on wet ice. […]

[1] = male, New Zealand white, rabbit, 0.8 mg/kg/day, optic nerve, Day 7, from mean concentrations
[2] = male, New Zealand white, rabbit, 0.8 mg/kg/day, plasma, Day 7, from mean concentrations
[3] = male, New Zealand white, rabbit, 0.8 mg/kg/day, retina, Day 7, from mean concentrations
[4] = male, New Zealand white, rabbit, 0.8 mg/kg/day, sclera/choroid, Day 7, from mean concentrations
[5] = male, New Zealand white, rabbit, 0.8 mg/kg/day, trabecular meshwork, Day 7, from mean concentrations
[6] = male, New Zealand white, rabbit, 0.8 mg/kg/day, vitreous humor, Day 7, from mean concentrations
[7] = male, New Zealand white, rabbit, Aqueous Humor, Day 7, Compound 18 0.8 mg/kg ocular instillation once daily, Groups 1 and 3
[8] = male, New Zealand white, rabbit, Cornea, Day 7, Compound 18 0.8 mg/kg ocular instillation once daily, Groups 1 and 3
[9] = male, New Zealand white, rabbit, Iris/Ciliary Body, Day 7, Compound 18 0.8 mg/kg ocular instillation once daily, Groups 1 and 3
[10] = male, New Zealand white, rabbit, Lens, Day 7, Compound 18 0.8 mg/kg ocular instillation once daily, Groups 1 and 3
[11] = male, New Zealand white, rabbit, Optic Nerve, Day 7, Compound 18 0.8 mg/kg ocular instillation once daily, Groups 1 and 3
[12] = male, New Zealand white, rabbit, Plasma, Day 7, Compound 18 0.8 mg/kg ocular instillation once daily, Groups 1 and 3
[13] = male, New Zealand white, rabbit, Retina, Day 7, Compound 18 0.8 mg/kg ocular instillation once daily, Groups 1 and 3
[14] = male, New Zealand white, rabbit, Sclera/Choroid, Day 7, Compound 18 0.8 mg/kg ocular instillation once daily, Groups 1 and 3
[15] = male, New Zealand white, rabbit, Trabecular Meshwork, Day 7, Compound 18 0.8 mg/kg ocular instillation once daily, Groups 1 and 3
[16] = male, New Zealand white, rabbit, Vitreous Humor, Day 7, Compound 18 0.8 mg/kg ocular instillation once daily, Groups 1 and 3

Compound `CCCc1nn(C)c2c(=O)[nH]c(-c3cc(S(=O)(=O)N4CC(CCCO)C4)ccc3OCC)nc12` [Compound 4, 5-(2-ethoxy-5-((3-(3-hydroxypropyl)azetidin-1-yl)sulfonyl)phenyl)-1-methyl-3-propyl-1,6-dihydro-7H-pyrazolo[4,3-d]pyrimidin-7-one] has a Cmax [1] of 40.2 ng/g, a Tmax [1] of 1 h and a half-life [1] of 2.93 h. For the same compound, the Cmax [2] was 1.02 ng/mL, the Tmax [2] was 0.5 h and the half-life [2] was 0.958 h. For the same compound, the AUC(0-t) [2] was 1.57 ng·h/mL, the Cmax [3] was 50.9 ng/g and the Tmax [3] was 2 h. For the same compound, the half-life [3] was 1.93 h, the Cmax [4] was 303 ng/g and the Tmax [4] was 4 h. For the same compound, the half-life [4] was 1.74 h, the Cmax [5] was 204 ng/g and the Tmax [5] was 1 h. It also gave a half-life [5] of 2.2 h, a Cmax [6] of 2.32 ng/mL and a Tmax [6] of 1 h. The half-life [6] was 1.72 h, the AUC(0-t) [6] was 9.9 ng·h/mL and the Cmax [7] was 124 ng/mL. It also gave a Tmax [7] of 1 h, a half-life [7] of 1.95 h and an AUC(0-t) [7] of 314 ng·h/mL. For the same compound, the Cmax [8] was 3600 ng/g, the Tmax [8] was 1 h and the half-life [8] was 2.63 h. It also gave a Cmax [9] of 980 ng/g, a Tmax [9] of 1 h and a half-life [9] of 2.11 h. The Cmax [10] was 18.1 ng/g, the Tmax [10] was 1 h and the half-life [10] was 2.25 h. For the same compound, the Cmax [11] was 40.2 ng/g, the Tmax [11] was 1 h and the half-life [11] was 2.93 h. It also gave a Cmax [12] of 1.02 ng/mL, a Tmax [12] of 0.5 h and a half-life [12] of 0.958 h. The AUC(0-t) [12] was 1.57 ng·h/mL, the Cmax [13] was 50.9 ng/g and the Tmax [13] was 2 h. For the same compound, the half-life [13] was 1.93 h, the Cmax [14] was 303 ng/g and the Tmax [14] was 4 h. The half-life [14] was 1.74 h, the Cmax [15] was 204 ng/g and the Tmax [15] was 1 h. The half-life [15] was 2.2 h, the Cmax [16] was 2.32 ng/mL and the Tmax [16] was 1 h. For the same compound, the half-life [16] was 1.72 h, the AUC(0-t) [16] was 9.9 ng·h/mL and the concentration at 8 h (male, New Zealand white, rabbit, trabecular meshwork, other: ocular instillation, 0.8 mg/kg/day, TD Phase, Group 3, 8 h, Mean, read-out: Final Compound 4 Trabecular Meshwork Conc.) was 13.9 ng/g. The AUC0-8 (optic nerve, Day 7, from mean concentrations) was 159 ng·h/g, the “Metabolite/parent AUC ratio (Compound 4 vs Compound 18)” value (“Metabolite/parent AUC ratio” below) (optic nerve) was 0.133 and the AUC0-8 (retina, Day 7, from mean concentrations) was 213 ng·h/g. For the same compound, the “Metabolite/parent AUC ratio” value (retina) was 1.34, the AUC0-8 (sclera/choroid, Day 7, from mean concentrations) was 1494 ng·h/g and the “Metabolite/parent AUC ratio” value (sclera/choroid) was 1.32. For the same compound, the AUC0-8 (trabecular meshwork, Day 7, from mean concentrations) was 533 ng·h/g and the “Metabolite/parent AUC ratio” value (trabecular meshwork) was 18.0.
